In patent US20100130579A1, “CANCER THERAPY” (Georgetown University, priority 2006, published 2010):

Experiments:
RASSF1 gene = test: Gene array (microarray) analysis of RASSF1 expression; assay type: cell-based, human; conditions: PC3 cells, 2 μg/ml mahanine, 2 days, compared to vehicle-treated control
Method: (§1) FIGS. 1A-1D. Mahanine induces RASSF1A in prostate and other cancer cells. FIG. 1A: Microarray analyses of PC3 cells treated with ([…] (+) or vehicle (−) for 2 days, RNA was extracted and microarray analysis was performed. FIG. 1B: RT-PCR data showing the expression of RASSF1A and GAPDH in untreated normal prostate epithelial cells (PrEC) and human prostate cancer cells (PC3). FIG. 1C: PC3 (left panel) and LNCaP (right panel) cells were treated with 0, 1, 2 and 3 μg/ml mahanine for 3 days. RNA was extracted, and RT-PCR assays were performed to detect RASSF1A and GAPDH expression. Representative photograph from an experiment that was repeated thrice. Quantitative estimations of relative levels of RASSF1A mRNAs (lower panels) were determined by densitometric measurements of RT-PCR gels from three independent experiments after normalization with GAPDH. […]
Microarray analysis: Total RNA was isolated from […] cells treated with or without mahanine using TRIZOL reagent (Invitrogen Corp., Carlsbad, Calif.). […] RNA was evaluated by electrophoresis before continuing with probe synthesis and hybridization. […] Following repetitive washing in saline-sodium citrate/SDS, hybridized cDNA probes were detected by chemiluminescence. […] Bound biotinylated cDNA probe was detected with alkaline phosphatase-conjugated streptavidin and CDP-Star chemiluminescent substrate (SuperArray). […]

RASSF1A = test: RT-PCR of RASSF1A expression in cancer cells; assay type: cell-based, human
Method: as §1
Genes of interest were amplified using 500 ng of total RNA reverse-transcribed to cDNA using a Superscript II kit (Invitrogen) with random hexamers. […] After amplification, PCR products were separated on 1.5% agarose gels and visualized by ethidium bromide fluorescence using the Fuji LAS-1000 Imager. […] Band intensities were quantified by using ImageJ software (NIH, Bethesda, Md.).

For `CC(C)=CCC[C@@]1(C)C=Cc2c(c(C)cc3c2[nH]c2cc(O)ccc23)O1` [mahanine], the “RASSF1 gene expression (gene array)” value (RASSF1 gene) was “dramatically induced”, the “induction of RASSF1A expression (RT-PCR)” value (RASSF1A; A431, A549, ASPC-1, HT-29, MCF7 and SKOV-3 cells, 2 and 3 μg/ml, 2 days) was “induced RASSF1A expression” and the “induction of RASSF1A gene expression (RT-PCR)” value (RASSF1A; PC3 cells, 1, 2 and 3 μg/ml, 3 days, dose-dependent) was 20-80 folds.
